Here are results for 33 compounds from PubChem BioAssay (NCI).

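96-well plates; 48 h exposure; 5 concentrations. Endpoints by linear interpolation between flanking doses. Not reached: highest tested concentration assigned. At the GI50, growth is halved. TGI marks complete inhibition of growth.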

Common to all, as to test: NCI tumour cell line growth inhibition, 48 h
For test [1], the system named is 786-0 renal.
Test [2] relates to HL-60(TB) leukemia.
In test [3] the test system is CCRF-CEM leukemia.
The test system of test [4] is HCC-2998 colon.
Test [5] concerns UACC-62 melanoma.
The test system of test [6] is LOX IMVI melanoma.
In test [7] the test system is SF-268 CNS.
Test [8] has as its system MDA-MB-435.
Test [9] has as its system MCF7 breast.
Test [10] deals with PC-3 prostate.

Take `CCN(/N=C1\CC2C=CCN(C2)C(=O)Cc2c1[nH]c1ccccc21)S(=O)(=O)c1ccc(C)cc1` (centres undefined): the TGI in [1], in test [2], in test [3], in test [4], in test [5] and in test [6] was above 100 µM each time.
Take `C/C(CCN(C)C)=N\OC(=O)c1ccccc1`: the TGI in test [1], in [7], in [2], in test [3], in test [4] and in [5] was above 100 µM each time. In test [6], this compound gave a TGI above 100 µM.
Turning to `[O-][N+]1=C2CCC/C(=N/O)C2(O)C2CCCCC21N1CCOCC1` (centres undefined), the TGI in test [8], in test [1], in [7], in [3], in [4] and in test [9] was above 100 µM each time. Also, the TGI in test [10], in [5] and in [6] was above 100 µM each time.
Regarding `COc1ccc(/C=C/C(=O)CCN2CCN(CCC(=O)/C=C/c3ccc(OC)cc3)CC2)cc1`, the TGI is 24.6 µM in test [8]; 10.9 µM in test [1]; 41.7 µM in test [7]; above 100 µM in test [2]; 24.7 µM in test [4]; 13.6 µM in [9]. Moreover, the TGI amounted to 25.5 µM in [10], 27.2 µM in test [5] and 11.1 µM in test [6].
For the compound `NC(CSCSCC(N)C(=O)O)C(=O)O` (centres undefined), the TGI in test [7] is above 225 µM; in [2], above 225 µM; in test [3], above 71.2 µM; in [4] it was above 225 µM; in test [9] it was above 225 µM; in test [5], above 225 µM. Moreover, in test [6], the TGI was above 225 µM.
As for `CC(C)C(CCOS(=O)(=O)O)CCC(C)[C@H]1[C@@H](O)C(O)C2[C@]3(O)C[C@@H](O)C4(O)C[C@@H](O)CC[C@]4(C)C3CC[C@@]21C` (some centres undefined), the TGI in test [1], in test [7], in test [2], in [3], in test [4] and in test [5] was above 100 µM each time. The compound also had a TGI in test [6] above 100 µM.
As for `COc1cccc(/C=N/[N-]C(N)=O)c1[O-].[Co+2].[OH3+].c1ccncc1`, the TGI in test [1], in test [7], in test [2], in test [3], in test [4] and in test [5] was above 100 µM in each case. Further, the TGI in test [6] is above 100 µM. In test [2], the GI50 is 30.8 µM.
As to `CC(C)CC1N=C(OCc2ccccc2)OC1=O` (centres undefined), the TGI in [8], in test [1], in test [7], in test [3], in [9] and in test [10] was above 100 µM in each case. Besides, the TGI in [6] is above 100 µM.
Turning to `C[C@@H]1CC[C@@]2(C)[C@H](C)/C(=C\COC(=O)/C=C/c3ccc(O)c(O)c3)CC[C@@]12C`, the TGI in test [8] is 11.6 µM; in [1], 17.6 µM; in test [7], 23.5 µM; in test [2] it was 13.4 µM; in [4] it was 20 µM; in [9], 15.2 µM. Also, the TGI in test [10] is 17.4 µM; in [5], 22.1 µM; in [6], 21.5 µM.
With `N#C/C(=C\c1ccc[nH]1)C(=O)c1ccccc1`, the TGI in [1], in test [7], in test [2], in test [3], in test [4] and in [5] was above 100 µM throughout. The compound further registered a TGI in test [6] above 100 µM.
Turning to `c1ccc(/C(=N/Nc2ccccn2)c2cccnn2)cc1`, the TGI was above 100 µM in [8]; above 100 µM in [1]; 6.42 µM in test [7]; 71.3 µM in [2]; above 100 µM in test [4]; above 93.4 µM in [9]. Further, the TGI in test [10] is above 100 µM; in [5] it was above 52.6 µM; in [6], above 100 µM.
Regarding `C[C@]12CCc3nn(-c4ccccc4)nc3C1CC[C@@H]1C2CC[C@]2(C)C(=O)CCC12` (some centres undefined), the TGI in [1], in test [7], in test [2], in test [3], in test [4] and in test [5] was above 100 µM each time. For the same compound, the TGI in test [6] was above 100 µM.
Consider `COc1ccc(-c2cc(=O)c3cc(O)ccc3o2)c(OC)c1OC`, for which the TGI was above 100 µM in test [1]; 93 µM in test [7]; 37.2 µM in test [2]; 70.6 µM in test [3]; above 100 µM in test [4]; above 100 µM in test [5]. In test [6], the TGI was 57.1 µM.
As to `CN(C)NC1=NS(=O)(=O)c2cc3c(=O)n(C)[nH]c3cc2S1`, the TGI in [1], in [7], in test [2], in [3], in test [4] and in test [9] was above 10 µM each time. The TGI in [10] and in test [6] was above 10 µM in each case.
On to `S=C1NNC2(C(=S)N1)c1ccccc1-c1ccccc12`, for which the TGI in test [1], in [7], in [2], in test [3], in test [4] and in test [9] was above 10 µM in each case. Also, the TGI in [5] and in [6] was above 10 µM throughout.
For the compound `CCOc1cc2c(cc1O)C(=O)C[C@@H]1[C@@H]2CC[C@]2(C)[C@@H](O)CC[C@@H]12`, the TGI is 0.222 µM in [8]; above 53.8 µM in test [1]; above 95.4 µM in [7]; above 100 µM in test [3]; 4.56 µM in test [4]; above 100 µM in test [9]. The figures for the TGI in test [10], in test [5] and in test [6] were above 82.5 µM, above 100 µM and above 100 µM, respectively.
In the case of `C=C1CN2CCc3c([nH]c4ccccc34)C2CC1CC(=O)N(C)C` (centres undefined), the TGI in [1], in [7], in test [2], in [3], in test [4] and in [5] was above 309 µM throughout. The compound further showed a TGI in test [6] above 309 µM.
Regarding `O=C1N[C@H](C(=O)O)[C@@H](c2ccc(OCc3ccccc3)cc2)O1`, the TGI is above 100 µM in [8]; 65.6 µM in test [1]; 87.9 µM in [7]; above 100 µM in test [3]; above 100 µM in [4]; above 100 µM in [9]. In addition, the TGI in test [10] and in [5] was above 100 µM each time.
`COC(=O)C1=CCC2c3[nH]c4ccccc4c3CCN2C1` (centres undefined): the TGI in [1], in test [7], in [2], in test [3], in [4] and in test [5] was above 354 µM throughout. In test [6], this compound returned a TGI above 354 µM.
Regarding `CSC1=Nc2ccccc2N=C(c2ccccc2)C1`, the TGI was above 100 µM in [1]; above 100 µM in test [7]; 34.9 µM in test [2]; 58.9 µM in test [3]; above 100 µM in test [4]; above 100 µM in test [5]. The TGI in test [6] stood at 32.2 µM.
For `CC(=O)OCC1OC(O[C@H]2C=C[C@@H](C(=O)OCc3ccccc3)n3c(=O)n(-c4ccccc4)c(=O)n32)C(OC(C)=O)C(OC(C)=O)C1OC(C)=O` (some centres undefined), the TGI in test [8] is 4.45 µM; in test [1], 4.51 µM; in test [7], 4.23 µM; in [2] it was above 100 µM; in test [3], above 19.9 µM; in [4], 3.22 µM. In addition, the TGI was 13 µM in test [10] and 3.18 µM in test [5].
As to `CN(C)CC(C)(C)CN1c2ccccc2Sc2ccccc21`, the TGI turned out to be 26.5 µM in test [8]; 25.5 µM in test [1]; 27.5 µM in test [7]; 30 µM in test [9]; 25.5 µM in [10]; 28.2 µM in test [5]. Moreover, the TGI in test [6] is 26.4 µM.
As to `O=c1c2cc([N+](=O)[O-])ccc2n2n1CCCCC2`, the TGI in [8], in test [1], in test [7], in test [2], in [3] and in [4] was above 100 µM in each case. Also, the TGI in test [10], in test [5] and in test [6] was above 100 µM throughout.
For `Cn1c(=O)cc(Nc2ccc(N)cc2)[nH]c1=O`, the TGI in [8], in test [1], in test [7], in [3], in test [4] and in test [9] was above 100 µM throughout. Besides, the TGI in test [10], in [5] and in [6] was above 100 µM in each case.
Consider `CC(N)C(C)c1ccccc1` (centres undefined), for which the TGI in test [1], in test [7], in test [2], in test [3], in test [4] and in [5] was above 100 µM throughout. The same compound yielded a TGI in test [6] above 100 µM.
With `Cn1c(=O)n(C2(C)CSC2)c2ccccc21`, the TGI in test [1], in test [7], in test [2], in test [3], in [4] and in test [5] was above 100 µM throughout. In test [6], this compound yielded a TGI above 100 µM.
Consider `O=c1oc2ccccc2n1P(=O)(Oc1ccc(Cl)cc1)n1c(=O)oc2ccccc21`, for which the TGI in test [7], in [2], in test [3], in test [4], in [5] and in test [6] was above 100 µM each time.
For `CC#CC#C/C=C1\C=CC2(OC=CC2O)O1` (centres undefined), the TGI is above 23.3 µM in test [1]; above 23.3 µM in [7]; above 23.3 µM in test [2]; above 21.1 µM in [3]; above 23.3 µM in test [4]; above 23.3 µM in test [5]. The TGI in test [6] was above 23.3 µM.
On to `CC1CCc2c(sc3ncnc(N/N=C/c4ccc(Cl)cc4)c23)C1` (centres undefined), for which the TGI is above 100 µM in test [1]; above 100 µM in test [7]; 43.5 µM in test [2]; above 100 µM in test [4]; above 100 µM in test [5]; 70.6 µM in test [6].
With `CN(/N=C/C=N/N(C)C1=NCCN1)C1=NCCN1`, the TGI in [8], in test [1], in test [7], in test [3], in test [4] and in test [9] was above 100 µM in each case. In addition, the TGI in test [10], in test [5] and in test [6] was above 100 µM each time.
With `Cc1c(C#N)c2nc3ccccc3n2c(=O)/c1=C/Nc1ccc(Cl)cc1`, the TGI in test [8] is above 100 µM; in test [1], 20.7 µM; in test [7], above 100 µM; in [2] it was above 100 µM; in [4], above 100 µM; in test [9], above 100 µM. The TGI is 47.4 µM in test [5] and above 100 µM in test [6].
On to `O=C(OCC(OC(=O)c1ccccc1)C1CC(C2(O)CCCCC2)C(=O)O1)c1ccccc1` (centres undefined), for which the TGI in [8], in test [1], in test [7], in test [3], in test [4] and in test [9] was above 25 µM throughout. Besides, the values for the TGI in test [10], in test [5] and in [6] were above 25 µM, 2.21 µM and above 25 µM, respectively.
For the compound `Cc1ccc(-c2cc(=O)c(=O)[nH][nH]2)cc1`, the TGI in test [8], in [1], in test [7], in [3], in [4] and in test [9] was above 100 µM throughout. Besides, the TGI in [10], in test [5] and in test [6] was above 100 µM each time.
